In patent publication US8367873B2, “Phenyl-substituted bicyclooctane-1,3-dione derivatives” (Bayer Cropscience AG, priority 2008, dated 2013):

How the values were obtained:
Type in all cases: in vivo
Setaria viridis [1] = test: Herbicidal post-emergence action; settings: post-emergence method, 80 g/ha
Summary of the method: (§1)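 Greenhouse-grown weeds were treated post-emergence at the one-leaf stage, two to three weeks after sowing in sandy loam. Compounds formulated as WP were sprayed at various rates in 600 l/ha water with 0.2% wetting agent. Damage was scored visually after about three weeks versus untreated controls (0% = like control, 100% = dead).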

Echinocloa crus-galli [2] = test: Herbicidal post-emergence action; settings: post-emergence method, 80 g/ha
Summary of the method: as §1

Alopecurus myosuroides [3] = test: Herbicidal post-emergence action; settings: post-emergence method, 80 g/ha
Summary of the method: as §1

Lolium multiflorum [4] = test: Herbicidal post-emergence action; settings: post-emergence method, 80 g/ha
Summary of the method: as §1

[5] = tested on: monocotylidonous and dicotylidonous weed and crop plants; test: Herbicidal pre-emergence action (other test plants); settings: pre-emergence method, 80 g/ha, greenhouse, visual assessment vs untreated controls
Text: Seeds of monocotylidonous and dicotylidonous weed and crop plants are placed in sandy loam in wood fibre pots and covered with soil. The test compounds, formulated in the form of wettable powders (WP), are then, as an aqueous suspension with a water application rate of 600 l/ha (converted), with 0.2% of wetting agent added, applied to the surface of the covering soil in different amounts.
After the treatment, the pots are placed in a greenhouse and kept under good growth conditions for the test plants. The visual assessment of the emergence damage on the test plants is carried out after a trial period of three weeks by comparison with the untreated controls (herbicidal effect in percent: 100% effect=the plants have died, 0% effect=like control plants).

Setaria viridis [6] = test: Herbicidal pre-emergence action; settings: pre-emergence method, 80 g/ha, greenhouse, visual assessment vs untreated controls
Summary of the method: (§2)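 Seeds sown in sandy loam and covered; WP-formulated compounds applied to the soil surface as aqueous suspension at 600 l/ha with 0.2% wetting agent, at varying rates. Greenhouse-grown; emergence damage scored visually after three weeks versus untreated controls (100% = plants dead, 0% = like control).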

Echinocloa crus-galli [7] = test: Herbicidal pre-emergence action; settings: pre-emergence method, 80 g/ha, greenhouse, visual assessment vs untreated controls
Summary of the method: as §2

Alopecurus myosuroides [8] = test: Herbicidal pre-emergence action; settings: pre-emergence method, 80 g/ha, greenhouse, visual assessment vs untreated controls
Summary of the method: as §2

Lolium multiflorum [9] = test: Herbicidal pre-emergence action; settings: pre-emergence method, 80 g/ha, greenhouse, visual assessment vs untreated controls
Summary of the method: as §2

[10] = tested on: monocotylidonous and dicotylidonous weed and crop plants; test: Herbicidal post-emergence action (other test plants); settings: post-emergence method, 80 g/ha
Summary of the method: as §1

Compound	herbicidal effect against SETVI (Setaria viridis) (Setaria viridis [1])	herbicidal effect against ECHCG (Echinochloa crus-galli) (Echinocloa crus-galli [2])	herbicidal effect against ALOMY (Alopecurus myosuroides) (Alopecurus myosuroides [3])	herbicidal effect against LOLMU (Lolium multiflorum) (Lolium multiflorum [4])	herbicidal effect AVEFA [5]	herbicidal effect SETVI (Setaria viridis [6])	herbicidal effect ECHCG (Echinocloa crus-galli [7])	herbicidal effect ALOMY (Alopecurus myosuroides [8])	herbicidal effect LOLMU (Lolium multiflorum [9])	herbicidal effect against AVEFA (Avena fatua) [10]
COC(=O)OC1=C(c2c(C)cc(C)cc2C)C(=O)C2CC3(COC(C)(C)O3)CC12 (mixture of isomers) [I-c-56]	40%	80%	90%	80%	20%	0%	20%	90%	90%	20%
CCc1cc(C)cc(C)c1C1=C(OC(=O)OC(C)C)C2CC3(COC(C)(C)O3)CC2C1=O (mixture of isomers) [I-c-78]	80%	90%	100%	100%	90%	80%	100%	100%	100%	0%
CCc1cc(C)cc(C)c1C1=C(OC(=O)OC)C2CC3(COC(C)(C)O3)CC2C1=O (mixture of isomers) [I-c-79]	90%	100%	100%	100%	80%	80%	100%	90%	100%	70%
CCOC(=O)OC1=C(c2c(C)cc(C)cc2CC)C(=O)C2CC3(COC(C)(C)O3)CC12 (mixture of isomers) [I-c-80]	90%	100%	90%	100%	60%	60%	100%	100%	100%	70%
C=C1CC2C(=O)C(c3c(C)cc(C)cc3C)=C(OC(=O)OCC)C2C1 (racemic) [I-c-45]	90%	90%	40%	100%	80%	80%	80%	60%	80%	0%
C=C1CC2C(=O)C(c3c(C)cc(C)cc3C)=C(OC(=O)OC)C2C1 (racemic) [I-c-46]	90%	80%	40%	90%	50%	80%	80%	80%	70%	0%
CCOC(=O)OC1=C(c2c(C)cc(C)cc2C)C(=O)C2CC3(CC12)OCCCCO3 (racemic) [I-c-50]	80%	80%	60%	100%	0%	0%	0%	30%	100%	0%
CCOC(=O)OC1=C(c2c(C)cc(C)cc2C)C(=O)C2CC3(CC12)OCC=CCO3 (racemic) [I-c-51]	100%	100%	100%	100%	60%	90%	30%	100%	90%	40%
COC(=O)OC1=C(c2c(C)cc(C)cc2C)C(=O)C2CC3(CC12)OCC=CCO3 (racemic) [I-c-52]	100%	90%	100%	100%	70%	70%	50%	60%	100%	80%
C=C1CC2C(=O)C(c3c(C)cc(C)cc3OC)=C(OC(=O)OCC)C2C1 (racemic) [I-c-61]	90%	90%	40%	70%	60%	90%	90%	70%	50%	0%
CCOC(=O)OC1=C(c2c(C)cc(C)cc2OC)C(=O)C2CC3(CC12)OCCCO3 (racemic) [I-c-63]	100%	100%	100%	100%	70%	50%	50%	80%	100%	100%
CCOC(=O)OC1=C(c2c(C)cc(C)cc2OC)C(=O)C2CC3(CC12)OCCO3 (racemic) [I-c-64]	100%	100%	80%	100%	70%	70%	50%	60%	100%	80%
CCOC(=O)OC1=C(c2c(C)cc(C)cc2OC)C(=O)C2CC3(CC12)OCC=CCO3 (racemic) [I-c-65]	100%	100%	100%	100%	60%	90%	80%	100%	100%	100%
CCOC(=O)OC1=C(c2c(C)cc(C)cc2OC)C(=O)C2CC3(CC12)OCCCCO3 (racemic) [I-c-66]	100%	100%	100%	100%	70%	60%	100%	100%	100%	100%
CCOC(=O)OC1=C(c2c(C)cc(C)cc2CC)C(=O)C2CC3(CC12)OCC=CCO3 (racemic) [I-c-72]	100%	100%	100%	100%	50%	80%	100%	60%	100%	70%
CCc1cc(C)cc(C)c1C1=C(OC(=O)OC)C2CC3(CC2C1=O)OCC=CCO3 (racemic) [I-c-73]	100%	100%	100%	100%	40%	60%	50%	70%	100%	0%
CCc1cc(C)cc(C)c1C1=C(OC(=O)OC(C)C)C2CC3(CC2C1=O)OCC=CCO3 (racemic) [I-c-74]	100%	100%	60%	100%	60%	100%	100%	70%	100%	70%
